# Measured values published in the NIST ThermoML archive (doi:10.1016/j.jct.2015.01.012).
# Values joined by “and” are separate entries in the source; they are usually repeats but may differ in a detail not shown here. Equal entries are not always repeated. ± gives the expanded uncertainty stated by the source.
# Settings: Crystal, Calculated from knudsen effusion weight loss
smiles,measurement,setting,value
CCn1c(-c2ccccc2)cc2ccccc21 [1-ethyl-2-phenylindole],vapor or sublimation pressure,327.18 K,7.2e-05 ± 6e-05 kPa and 6.9e-05 ± 6e-05 kPa and 7.1e-05 ± 6e-05 kPa
same,vapor or sublimation pressure,329.18 K,9.5e-05 ± 6e-05 kPa and 9.1e-05 ± 6e-05 kPa and 8.9e-05 ± 6e-05 kPa
same,vapor or sublimation pressure,331.09 K,0.000115 ± 6e-05 kPa and 0.000114 ± 6e-05 kPa and 0.000119 ± 6e-05 kPa
same,vapor or sublimation pressure,333.18 K,0.000144 ± 6e-05 kPa and 0.000143 ± 6e-05 kPa and 0.000145 ± 6e-05 kPa
same,vapor or sublimation pressure,335.18 K,0.00019 ± 6e-05 kPa and 0.000184 ± 6e-05 kPa and 0.000192 ± 6e-05 kPa
same,vapor or sublimation pressure,337.19 K,0.000239 ± 6.1e-05 kPa and 0.00024 ± 6.1e-05 kPa
same,vapor or sublimation pressure,339.17 K,0.000291 ± 6.1e-05 kPa and 0.000287 ± 6.1e-05 kPa and 0.000307 ± 6.1e-05 kPa
same,vapor or sublimation pressure,341.17 K,0.000379 ± 6.1e-05 kPa and 0.000368 ± 6.1e-05 kPa and 0.000387 ± 6.2e-05 kPa
same,vapor or sublimation pressure,343.08 K,0.000472 ± 6.2e-05 kPa and 0.000478 ± 6.2e-05 kPa
same,vapor or sublimation pressure,345.16 K,0.000624 ± 6.4e-05 kPa and 0.000605 ± 6.4e-05 kPa and 0.000625 ± 6.4e-05 kPa
same,vapor or sublimation pressure,347.08 K,0.000779 ± 6.6e-05 kPa and 0.000766 ± 6.6e-05 kPa and 0.000775 ± 6.6e-05 kPa
same,vapor or sublimation pressure,349.08 K,0.000974 ± 6.9e-05 kPa and 0.000987 ± 6.9e-05 kPa and 0.000986 ± 6.9e-05 kPa
Cn1c(-c2ccccc2)cc2ccccc21 [1-methyl-2-phenylindole],vapor or sublimation pressure,331.17 K,7.4e-05 ± 6e-05 kPa and 7.7e-05 ± 6e-05 kPa
same,vapor or sublimation pressure,333.17 K,0.000104 ± 6e-05 kPa and 0.000102 ± 6e-05 kPa and 9.9e-05 ± 6e-05 kPa
same,vapor or sublimation pressure,335.1 K,0.00013 ± 6e-05 kPa and 0.000126 ± 6e-05 kPa and 0.000128 ± 6e-05 kPa
same,vapor or sublimation pressure,337.18 K,0.000157 ± 6e-05 kPa and 0.000154 ± 6e-05 kPa and 0.000158 ± 6e-05 kPa
same,vapor or sublimation pressure,339.21 K,0.000204 ± 6e-05 kPa and 0.000197 ± 6e-05 kPa and 0.000214 ± 6e-05 kPa
same,vapor or sublimation pressure,341.12 K,0.000252 ± 6.1e-05 kPa and 0.000254 ± 6.1e-05 kPa and 0.000251 ± 6.1e-05 kPa
same,vapor or sublimation pressure,343.17 K,0.000316 ± 6.1e-05 kPa and 0.000308 ± 6.1e-05 kPa and 0.000323 ± 6.1e-05 kPa
same,vapor or sublimation pressure,345.14 K,0.000404 ± 6.2e-05 kPa and 0.00039 ± 6.2e-05 kPa and 0.000414 ± 6.2e-05 kPa
same,vapor or sublimation pressure,347.08 K,0.000497 ± 6.3e-05 kPa and 0.000501 ± 6.3e-05 kPa and 0.000494 ± 6.3e-05 kPa
same,vapor or sublimation pressure,349.17 K,0.000593 ± 6.4e-05 kPa and 0.000586 ± 6.3e-05 kPa and 0.000585 ± 6.3e-05 kPa
same,vapor or sublimation pressure,351.21 K,0.000772 ± 6.6e-05 kPa and 0.000745 ± 6.6e-05 kPa
same,vapor or sublimation pressure,353.12 K,0.00092 ± 6.8e-05 kPa and 0.000943 ± 6.9e-05 kPa and 0.000939 ± 6.9e-05 kPa
c1ccc(-c2cc3ccccc3[nH]2)cc1 [2-phenyl-1H-indole],vapor or sublimation pressure,360.16 K,0.000122 ± 6e-05 kPa and 0.000119 ± 6e-05 kPa and 0.000116 ± 6e-05 kPa
same,vapor or sublimation pressure,362.11 K,0.000157 ± 6e-05 kPa and 0.000149 ± 6e-05 kPa and 0.000155 ± 6e-05 kPa
same,vapor or sublimation pressure,364.08 K,0.000184 ± 6e-05 kPa and 0.000182 ± 6e-05 kPa and 0.000176 ± 6e-05 kPa
same,vapor or sublimation pressure,366.16 K,0.000217 ± 6e-05 kPa and 0.000214 ± 6e-05 kPa and 0.000227 ± 6.1e-05 kPa
same,vapor or sublimation pressure,368.13 K,0.00027 ± 6.1e-05 kPa and 0.000262 ± 6.1e-05 kPa and 0.000278 ± 6.1e-05 kPa
same,vapor or sublimation pressure,370.1 K,0.000331 ± 6.1e-05 kPa and 0.000325 ± 6.1e-05 kPa and 0.000324 ± 6.1e-05 kPa
same,vapor or sublimation pressure,372.16 K,0.000392 ± 6.2e-05 kPa and 0.000393 ± 6.2e-05 kPa and 0.000412 ± 6.2e-05 kPa
same,vapor or sublimation pressure,374.12 K,0.000491 ± 6.2e-05 kPa and 0.000456 ± 6.2e-05 kPa and 0.0005 ± 6.3e-05 kPa
same,vapor or sublimation pressure,376.1 K,0.00059 ± 6.4e-05 kPa and 0.000574 ± 6.3e-05 kPa and 0.000592 ± 6.4e-05 kPa
same,vapor or sublimation pressure,378.15 K,0.000701 ± 6.5e-05 kPa and 0.000693 ± 6.5e-05 kPa and 0.000735 ± 6.5e-05 kPa
same,vapor or sublimation pressure,380.12 K,0.000868 ± 6.7e-05 kPa and 0.000885 ± 6.8e-05 kPa and 0.000832 ± 6.7e-05 kPa
same,vapor or sublimation pressure,382.1 K,0.001023 ± 9.4e-05 kPa and 0.001052 ± 9.6e-05 kPa and 0.001046 ± 9.6e-05 kPa
